# Results from patent US20240302387A1, “HIGHLY FLUORINATED COMPOUNDS FOR 19F MRI-BASED THERMOMETRY” (Regents of the University of Minnesota, priority 2023, published 2024).
# “Also recorded” adds a separate entry of the source. Read-outs that look alike come from different tables or passages of the source.
# Legend:
# Assay type in all cases: physicochemical
# [1] = Phase at room temperature
# Experimental: All seven organofluorine temperature sensors of Table 1a were synthesized under the optimized reaction conditions for enabling facile synthesis in the following General Scheme and Examples. Specifically, temperature sensors DD1-DD7 were prepared through an SNAr reaction. Compounds DD-2 and DD-4 required one extra oxidation of DD-1 and DD-3 to provide the respective sulfones. Yields of the SNAr reactions using thiol, HS—(CF2)7—CF3, were low […], while the yields with HS—CH2CH2CH2CF2CF3 fell in the range of […].
# [2] = 19F NMR aqueous solubility limit measurement; conditions: for solubility: pH 6.9, aqueous with cosolvent or surfactant or cyclodextrin, kinetic from dmso stock
# Experimental: ^19F NMR Aqueous Solubility Limit Measurements: Compound was dissolved in DMSO and then added to 10 mM pH=6.9 phosphate buffer/D2O (9:1 v/v) to make 5% DMSO stock in 500 μL phosphate buffer/D2O at concentration of 10/50/100/150/200/250 μM. Samples were measured with Bruker AVANCE III 500@ equipped with a 5 mm BBFO SmartProbe®. ^19F spectra were obtained at 471 MHz with dummy scans=4, acquisition time=0.57 s, delay time =1 s, […], and the number of scans=800 UV-Visible Spectra: Stock solutions of DD-1, DD-3, and DD-5 were prepared at 10 mM in DMSO and stored in the dark. A 10 mM phosphate buffer at pH=7 was prepared and stock solutions were diluted to 50 μM. UV-visible absorption spectra were obtained using a Horiba Aqualog®.
# [3] = Direct photolysis kinetics and quantum yield, solar simulator; conditions: for quantum yield of direct photolysis: 10 mM pH 7 phosphate buffer
# [4] = Quantitative 19F NMR fluorine mass balance after photolysis (solar simulator)
# Experimental: (§1) Quantitative ^19F NMR was conducted to determine if any of the fluorinated functional groups were susceptible to degradation. The environmental persistence and potential impact of these fluorinated temperature sensors will be a function of not only the persistence of the parent compound, but also that of any fluorinated reaction products. Photolysis and ozonation represent natural and engineered processes, respectively, that could degrade these compounds after their use and introduction into the water system.
# (§2) ^19F NMR spectra were taken to quantify and partition degradation products from the parent compound signals for photolysis and ozonation (FIG. 7). […] The solutions analyzed contained 50 μM of DD-1 with 14 fluorine atoms, thus a total fluorine concentration of 700 μM, with 200 μM attributed to the aromatic fluorines (Ar—F; −137.04 ppm), 200 μM attributed to the CF2 (−121.34 ppm), and 300 μM attributed to the CF3 (−89.14 ppm) as shown in FIG. 7. […] Top: regional spectrum of untreated DD-1. Middle: regional spectrum of DD-1 degraded by solar simulator. Bottom: regional spectrum of DD-1 degraded by ozone. (left) Spectra of CF3 region. (middle) Spectra of CF2 region. (right) Spectra of Ar—F region. For photolysis and ozonation, 61% and 87% the parent Ar—F signal was lost respectively. A peak at ˜139.1 ppm appeared following ozonation and is hypothesized to be a hydroxylated aromatic ring product, which is a known reaction process for aromatics during ozonation (Vialaton, D., et al (1998) J Photochem Photobiol A Chem 119 (1):39-45). For the parent CF2, the signal decreased by 45% and 79%, but new CF2 products appeared upfield. Under both degradative conditions, new peaks appear in the near regions of the CF2, likely due to ring opening processes. […] For the parent CF3, the signal decreased by 38% and 69%, again with new CF3 products appearing upfield. An excess of 39 μM and 48 μM fluorine for the solar simulator and ozonation, respectively, was found within the CF3 region. These groups are hypothesized to be products produced by opening of the aromatic ring, which could be vinyl fluorines with oxygen and/or sulfur substituents.
# Photolysis Experiments: Stock solutions were diluted to 10 μM in the phosphate buffer for kinetic experiments and 50 μM for ^19F NMR experiments. Solutions were placed in 10 mL quartz tubes sealed with cork stoppers with no contact to the solution. The solutions were photolyzed in (i) an Atlas Suntest CPS+® solar simulator with a 1500 W xenon lamp at an intensity of 765 W m-2 using a wavelength range of 290-800 nm at a 30° angle, and (ii) a 450 W medium pressure polychromatic mercury vapor lamp with a quartz immersion well with cooling water circulation, a Pyrex 280 nm cutoff filter (Ace Glass), and a merry-go-round sample holder. Samples were photolyzed until ˜60 to 80% degradation of the parent compound was achieved. For each compound an equivalent tube was prepared and wrapped in aluminum foil as a dark control. Experiments were performed in triplicate
# [5] = Quantitative 19F NMR fluorine mass balance after ozonation
# Experimental: as §1, §2
# Ozone-mediated Degradation: The 10 mM DMSO stock solution of DD-1 was used to make 100 mL of a 50 μM solution in the 10 mM pH=7 phosphate buffer. The solution was placed in an Erlenmeyer flask in an ice bath. Ozone (O3) was produced using ultra-high pure oxygen gas (99.99%) with a Pacific Ozone O3 generator and bubbled directly into the sample solution. O3 concentration was previously measured using UV-Vis spectroscopy (Beckman Coulter DU 530). The concentration of O3 (with an ε=3000 M^−1 cm^−1) was determined by direct absorbance at 258 nm. By using a 3:1 dilution, the absorbance obtained is equivalent to the O3 concentration in mM. After 30 minutes the O3 concentration in ultrapure water was 0.61 mM or 29.16 mg/L. Samples were taken over time for 300 minutes and parent compound degradation was monitored via HPLC.
# [6] = Direct photolysis kinetics, mercury vapor lamp
compound,measurement,setting,value
"FC(F)(F)C(F)(F)C(F)(F)C(F)(F)N(C(F)(F)C(F)(F)C(F)(F)C(F)(F)F)C(F)(F)C(F)(F)C(F)(F)C(F)(F)F [CC-1, perfluorotributylamine, reference compound]",Phase,[1],liquid
same,Phase,[1]; listed as CC-1 PFTBA,solid at room temperature
same,water solubility (in words),[2],limited water solubility
"Fc1c(F)c(-c2c(F)c(F)c(SCCC(F)(F)C(F)(F)C(F)(F)C(F)(F)C(F)(F)C(F)(F)C(F)(F)C(F)(F)F)c(F)c2F)c(F)c(F)c1SCCC(F)(F)C(F)(F)C(F)(F)C(F)(F)C(F)(F)C(F)(F)C(F)(F)C(F)(F)F [CC-2, (perfluoro-[1,1′-biphenyl]-4,4′-diyl)bis((3,3,4,4,5,5,6,6,7,7,8,8,9,9,10,10,10-heptadecafluorodecyl)sulfane), reference compound]",Phase,[1],solid
"Fc1c(F)c(SCCC(F)(F)C(F)(F)C(F)(F)C(F)(F)C(F)(F)C(F)(F)C(F)(F)C(F)(F)F)c(F)c(F)c1SCCC(F)(F)C(F)(F)C(F)(F)C(F)(F)C(F)(F)C(F)(F)C(F)(F)C(F)(F)F [CC-3, (perfluoro-1,4-phenylene)bis((3,3,4,4,5,5,6,6,7,7,8,8,9,9,10,1 0,10-heptadecafluorodecyl)sulfane), reference compound]",Phase,[1],solid
"Fc1c(F)c(SCCCC(F)(F)C(F)(F)F)c(F)c(F)c1SCCCC(F)(F)C(F)(F)F [DD-1, (perfluoro-1,4-phenylene)bis((4,4,5,5,5-pentafluoropentyl)sulfane)]",Phase,[1],liquid phase at room temperature
same,solubility,[2],≤ 200 µM
same,quantum yield of direct photolysis,[3],0.0272 mol Ei^−1
same,Fluoride (F−) production,"[4]; photolysis, 50 μM",79 µM
same,parent Ar—F 19F NMR signal lost,"[4]; photolysis, 50 μM",61%
same,parent CF2 signal decrease,"[4]; photolysis, 50 μM",45%
same,parent CF3 signal decrease,"[4]; photolysis, 50 μM",38%
same,"sum of fluorine concentrations for Ar—F, F− and ring opening products/vinyl F","[4]; photolysis, initial Ar—F 200 μM",198 µM
same,excess fluorine found within the CF3 region,"[4]; solar simulator, 50 μM",39 µM
same,"sum of fluorine concentrations for Ar—F, F− and ring opening products/vinyl F","[5]; O3, initial Ar—F 200 μM",200 µM
same,Fluoride (F−) production,"[5]; ozonation, 50 μM",117 µM
same,excess fluorine found within the CF3 region,"[5]; ozonation, 50 μM",48 µM
same,parent Ar—F 19F NMR signal lost,"[5]; ozonation, 50 μM",87%
same,parent CF2 signal decrease,"[5]; ozonation, 50 μM",79%
same,parent CF3 signal decrease,"[5]; ozonation, 50 μM",69%
"O=S(=O)(CCCC(F)(F)C(F)(F)F)c1c(F)c(F)c(S(=O)(=O)CCCC(F)(F)C(F)(F)F)c(F)c1F [DD-2, 1,2,4,5-tetrafluoro-3,6-bis((4,4,5,5,5-pentafluoropentyl)sulfonyl) benzene]",Phase,[1],white solids; also recorded: solid
"Fc1c(F)c(-c2c(F)c(F)c(SCCCC(F)(F)C(F)(F)F)c(F)c2F)c(F)c(F)c1SCCCC(F)(F)C(F)(F)F [DD-3, (perfluoro-[1,1′-biphenyl]-4,4′-diyl)bis((4,4,5,5,5-pentafluoropentyl)sulfane)]",Phase,[1],liquid phase at room temperature
same,solubility,[2],≤ 200 µM
same,quantum yield of direct photolysis,[3],0.0267 mol Ei^−1
"O=S(=O)(CCCC(F)(F)C(F)(F)F)c1c(F)c(F)c(-c2c(F)c(F)c(S(=O)(=O)CCCC(F)(F)C(F)(F)F)c(F)c2F)c(F)c1F [DD-4, 2,2′,3,3′,5,5′,6,6′-octafluoro-4,4′-bis((4,4,5,5,5-pentafluoropentyl)sulfonyl)-1,1′-biphenyl]",Phase,[1],solid
"Fc1c(F)c(Sc2c(F)c(F)c(SCCCC(F)(F)C(F)(F)F)c(F)c2F)c(F)c(F)c1SCCCC(F)(F)C(F)(F)F [DD-5, bis(2,3,5,6-tetrafluoro-4-((4,4,5,5,5-pentafluoropentyl)thio)phenyl)sulfane]",Phase,[1],solid
same,rank of photolysis rate constant,[3],fastest
same,quantum yield of direct photolysis,[3],0.0520 mol Ei^−1
same,rank of photolysis rate constant,[6],fastest
"O=S(=O)(c1c(F)c(F)c(SCCCC(F)(F)C(F)(F)F)c(F)c1F)c1c(F)c(F)c(SCCCC(F)(F)C(F)(F)F)c(F)c1F [DD-6, (sulfonylbis(2,3,5,6-tetrafluoro-4,1-phenylene))bis((4,4,5,5,5-pentafluoropentyl)sulfane)]",Phase,[1],solid
